The results in this text go back to the OPERA property sets (Mansouri et al. 2018).

Consider `CC(=O)C(C)CN1CCCCC1` (stereo not given), for which the lipophilicity (logP) was found to be 1.28.
The figure for `CC(N)CC1CCCCCCC1` (stereo not given) is 3.7; for `Cc1cccc(C)c1NC(=O)CCCCN` it is 1.02; for `O=[N+]([O-])c1cnc(N=C2NCCO2)s1` it is 0.57.
Under `CCCCCc1ccc(CC(=O)O)cc1` stands 3.75; under `CCC(C(=O)OCc1ccc(Cl)cc1)C(COC(=O)c1ccccc1)Cc1cncn1C` (stereo not given), 4.9.
The figure for `O=c1c2ccccc2nc2n1CCC2` is 1.07; for `CCN1CC(C(O)C(CC2CCCCC2)NC(=O)C(Cc2cc[nH]n2)NC(=O)C(CC(=O)N2CCOCC2)Cc2ccccc2)OC1=O` (stereo not given) it is 2.49; for `CC(C)(C)c1cccc(C2C(=O)c3ccccc3C2=O)c1` it is 4.88.
The compound `CCCCCCCC1CC(C(=O)Nc2c(C(C)C)cccc2C(C)C)C(=O)O1` (stereo not given) displayed a logP of 4.72. The logP values of the last two compounds are within 0.2 log units of each other.
`CCCCCCCCC=CCCCCCCCC(=O)O` displayed a lipophilicity (logP) of 7.64.
Under `O=c1[nH]nc(-c2ccccc2)c2ccccc12` stands 2.48; under `O=c1ccccc(O)c1`, 0.81.
The figure for `Cn1nnnc1SCC1=C(C(=O)OCOC(=O)C(C)(C)C)N2C(=O)C(NC(=O)C(O)c3ccccc3)C2SC1` (stereo not given) is 0.85; for `O=C(NN1CC=CCC1)c1ccco1` it is 0.81.
The figure for `CCCCCCCC(C)(C)c1ccc(C2CCCC(O)C2)c(O)c1` (stereo not given) is 7.18; for `C#CCC(O)(c1cccnc1)C1CCCCC1` (stereo not given) it is 2.09; for `C#CC1(O)C(F)CC2C3CCc4cc(O)ccc4C3CCC21C` (stereo not given) it is 3.3.
`Cc1ccc(C(=O)c2ccc(CC(=O)O)n2C)cc1`: the logP came to 2.79.
Under `Oc1ccc(O)c2ccccc12` stands 1.9; under `CC(C)c1cccc(S(N)(=O)=O)c1`, 1.81.
Compound `OC1CCCc2ccccc21` (stereo not given) returned a logP of 1.98.
Compound `CCC(CC)C(=O)O` yielded a logP of 1.68.
Under `Cc1ccccc1OCC(O)CNCCOc1ccc(C(N)=O)cc1` (stereo not given) stands 2.22; under `Cn1c([N+](=O)[O-])cnc1C=Cc1ccncn1`, 0.85; under `O=C1C[N+]([O-])=C(c2ccccc2)c2cc(Cl)ccc2N1`, 1.49.
`CNC(=O)OCc1c2c(n3c1C(OC(C)=O)CC3)C(=O)C=C(N1CCCC1)C2=O` (stereo not given): the logP turned out to be 1.4. This logP and that of the compound before are within 0.2 log units of each other.
The figure for `CC(C)(C)c1ccc(C2C(=O)c3ccccc3C2=O)cc1` is 4.88; for `O=C1CC(Oc2ccc(C(=O)CCc3ccccc3)cc2)N1` (stereo not given) it is 2.48.
`Cc1c2ccccc2cc2ccccc12`: the logP is 5.07.
Under `Cc1ccc(C(O)(Cn2ccnc2)c2ccc(Br)cc2)cc1` (stereo not given) stands 3.55.
Take `c1ccc2c(c1)ccc1cccnc12`: the lipophilicity (logP) was found to be 3.43.
In the case of `CCCCCCc1ccc(CC(=O)O)cc1`, the logP was 4.25.
The figure for `COc1cc(C(=O)OC2N=C(c3ccccc3)c3cc(Cl)ccc3NC2=O)cc(OC)c1OC` (stereo not given) is 3.75.
Under `O=[N+]([O-])c1cc(F)cc(F)c1` stands 2.03; under `Fc1ccc(Cl)c(N=C2NCCN2)c1`, 1.52.
Under `CCC(=O)Oc1c(OC)c(OC)c(OC(=O)CC)c2ccccc12` stands 3.44; under `C1CC2OC2CC1C1CO1` (stereo not given), 0.44; under `Cc1c2ccccc2c(C)c2ccccc12`, 5.69.
`Cc1cccc(C)c1NC(=O)CCN` came in with a log partition coefficient (logP) of 0.62.
The figure for `CC(C)NCC(O)COc1cccc(CC(N)=O)c1` (stereo not given) is 0.22.
Under `CC(=O)c1nc([N+](=O)[O-])n(CC(C)O)c1C` (stereo not given) stands 0.37; under `O=C1c2ccccc2C(=O)C1c1ccc(-c2ccccc2)cc1`, 4.79.
The figure for `CCCCc1ccncc1` is 3.13.
Consider `CC(O)c1ccc2ccccc2c1` (stereo not given), for which the lipophilicity (logP) was determined as 2.68.
The figure for `Cc1ccc(S(=O)(=O)NC(=O)NN2CCCC2)cc1` is 0.65; for `Clc1ccc(-c2ccccc2)cc1Cl` it is 5.29; for `Oc1ccc2cc(O)ccc2c1` it is 1.9.
Under `Cc1cnc(NS(=O)(=O)c2ccc(N)cc2)nc1` stands 0.34.
The figure for `Cc1cccc(N=C2NCCN2)c1Cl` is 1.83; for `COc1ccc(C(=O)CC(C)CC(=O)O)cc1Cl` (stereo not given) it is 2.6; for `Cc1cccc(C)c1NC(=O)CCC(C)N` (stereo not given) it is 1.08.
Turning to `O=C(O)C=COc1ccccc1Cl`, the lipophilicity (logP) came to 2.69.
Under `O=C(O)C=COc1ccccc1` stands 2.27; under `CC1Cc2ccccc2CN1` (stereo not given), 1.93; under `O=C1C=CC(=O)C(c2ccccc2)=C1`, 1.95.
`CCOC(=O)c1cccc(O)c1` registered a logP of 2.47.
Under `CC(C)NCC(O)c1ccc2ccccc2c1` (stereo not given) stands 3.
The figure for `COc1ccc(N2Cn3c(nc4ccccc4c3=O)C2C)cc1` (stereo not given) is 1.73.
The figure for `c1ccc2c(c1)Cc1c-2ccc2ccccc12` is 5.4; for `N#CC(CCN1CCC(C(N)=O)(N2CCCCC2)CC1)(c1ccccc1)c1ccccc1` it is 3.91.
As to `Cc1ncc(CO)c(CO)c1O`, the logP is -0.77.
Under `C#CC1(O)C(F)CC2C3CCc4cc(O)ccc4C3C(OC)CC21C` (stereo not given) stands 2.87; under `CCNc1ccc(C(=O)OCCN(C)C)cc1`, 2.62; under `O=C1C(N2CCN(CCO)CC2)=C(N2CC2)C(=O)C(N2CCN(CCO)CC2)=C1N1CC1`, -0.77.
Under `COc1cccc2c1C(=O)c1c(O)c3c(c(O)c1C2=O)CC(O)(C(C)=O)CC3OC1CC(N2CCOCC2)C(O)C(C)O1` (stereo not given) stands 2.31; under `C=CCOc1ccc(C(=O)c2ccc3n2CCC3C(=O)O)cc1` (stereo not given), 3.48.
In the case of `O=C(O)C1CCc2cc(Cl)ccc2O1` (stereo not given), the logP was determined as 2.4.
As for `O=C1NC(=O)C(c2ccccc2)C(=O)N1`, the logP is -0.17.
The figure for `C=CCC(NC(=O)C(Cc1ccccc1)NS(=O)(=O)N1CCOCC1)C(=O)NC(CC1CCCCC1)C(=O)C(F)(F)C(=O)NCCN1CCOCC1` (stereo not given) is 3.39; for `Cc1cc(C)cc(C2C(=O)c3ccccc3C2=O)c1` it is 4.02; for `O=C(O)Cc1cccc2ccccc12` it is 2.24.
The figure for `CCN(CC)CCNC(=O)c1ccc(N)cc1OC` is 1.4.
The figure for `CCCCc1ccc(CC(=O)O)cc1` is 3.25; for `Nc1ccc(O)c2ncccc12` it is -0.11; for `CCCCCCC(C)(C)c1ccc(C2CC(O)CCC2CCCO)c(O)c1` (stereo not given) it is 6.13.
`CCOC(=O)CNC(=O)CCCCSc1ncnc2nc[nH]c12` returned a logP of 0.91.
The figure for `O=[N+]([O-])c1ccc(O)cc1O` is 1.05.
Under `CCCCCCC(C)(C)c1cc(O)c2c(c1)OC(C)(C)C1CCC(C=O)=CC21` (stereo not given) stands 8.03.
The figure for `COc1ccccc1N1CCN(CCCNc2cc(=O)n(C)c(=O)n2C)CC1` is 1.6.
`CC1c2nc3ccccc3c(=O)n2CN1Cc1ccccc1` (stereo not given) showed a logP of 1.72.
The figure for `O=C1Nc2ccccc2CC1c1ccccc1` (stereo not given) is 2.93; for `COc1cccc2c1C(=O)c1c(O)c3c(c(O)c1C2=O)CC(O)(C(=O)CO)CC3OC1CC(N2CCOCC2)C(O)C(C)O1` (stereo not given) it is 1.73; for `CC(C)NCC1CCc2cc(CO)c([N+](=O)[O-])cc2N1` (stereo not given) it is 2.24.
Regarding `Cc1ccccc1C(OCCN(C)C)c1ccccc1` (stereo not given), the logP amounted to 3.77.
The figure for `CCC(=O)OC(C(=O)NC12CC3CC(CC(C3)C1)C2)c1ccccc1` (stereo not given) is 3.72; for `OC1c2ccccc2C2CCCCC2C1O` (stereo not given) it is 2.47; for `C=CCC(NC(=O)C(Cc1ccc(OC)cc1)NS(=O)(=O)N1CCOCC1)C(=O)NC(CC1CCCCC1)C(=O)C(F)(F)C(=O)NCCN1CCOCC1` (stereo not given) it is 2.73.
As for `C#C[C@]1(O)CC[C@H]2[C@@H]3CCc4cc(O)ccc4[C@H]3[C@@H](OC)C[C@@]21C`, the lipophilicity (logP) came to 3.01.
The figure for `CCCCNC(=O)NS(=O)(=O)c1ccc(N)cc1` is 1.01; for `Cc1cccc(C)c1NC(=O)C(C)N(C)C` (stereo not given) it is 1.53.
The figure for `CCC1(c2ccccc2)C(=O)N=C(OC(C)C)NC1=O` (stereo not given) is 1.79; for `C=C1C(=O)OC2C=C(C)C3(O)C=CC(C)(CC(OC(=O)C(=CC)COC(C)=O)C12)O3` (stereo not given) it is 1.19; for `Cc1cc(Cl)cc(C)c1NC1=NCCN1` it is 2.5.
The figure for `CC1OC(OC2C(O)CC(OC3CCC4(C)C(CCC5C4CCC4(C)C(C6=CC(=O)OC6)CCC54O)C3)OC2C)CC(O)C1O` (stereo not given) is 2.15; for `CC(=O)c1c(O)c(C)c(O)c2c1OC1=CC(=O)C(C(C)=O)C(=O)C12C` (stereo not given) it is 2.88; for `OCc1cc(Cl)cc(Cl)c1O` it is 2.3.
`COCCc1cnc(-c2ccc(OCC(O)CNCCc3ccc(OC)c(OC)c3)cc2)[nH]1` (stereo not given) gave a lipophilicity (logP) of 2.06.
Under `COc1ncnc(NS(=O)(=O)c2ccc(N)cc2)c1OC(C)C` stands 1.03; under `Cc1cnc2n(c1=O)CCCC2C` (stereo not given), 0.69.
The figure for `C=C1C(=O)OC2C1C(OC(=O)C(C)=CC)CC(O)(CCl)C1C(OC(C)=O)C=C(C)C21O` (stereo not given) is 1.42.
For `CCOP(=O)(Cc1ccc(-c2nc3ccccc3s2)cc1)OCC`, the log partition coefficient (logP) stood at 3.5.
The figure for `CC(C)c1nnc(SCC(=O)c2ccccc2)n(N)c1=O` is 2.07; for `CC(C)c1ccc(S(N)(=O)=O)cc1` it is 1.84; for `Cc1nc2n(c(=O)c1C)CCCC2` it is 0.6.
Under `COc1ccc(C(O)(Cn2ccnc2)c2ccc(Br)cc2)cc1` (stereo not given) stands 4.02.
Compound `CCNC(=O)c1cc(Br)cc(C)c1O` yielded a log partition coefficient (logP) of 3.61.
`CCC(N)C(=O)Nc1c(C)cccc1C` (stereo not given) had a logP of 0.84.
The compound `C[C@@H]1Cc2c(Cl)cc(C(=O)N[C@@H](Cc3ccccc3)C(=O)O)c(O)c2C(=O)O1` displayed a logP of 4.74.
Under `CCCN1C(=O)SC(=Cc2ccc([N+](=O)[O-])o2)C1=O` stands 2.4.
Compound `CCN(CC)CCCCCCC(=O)Nc1c(C)cccc1C` yielded a logP of 3.48.
Under `COc1cc(OC)c(Cl)c(Cc2cnc(N)nc2N)c1Cl` stands 2.55.
The figure for `C=C(C)C(=O)OCCOCCOCCOC(=O)C(=C)C` is 1.88.
For `Cc1cc(=O)oc2c1ccc1occc12`, the logP was 2.32.
`CCN1CC(C(O)C(CC2CCCCC2)NC(=O)C(Cc2cnc[nH]2)NC(=O)C(Cc2ccc(OC)cc2)NC(=O)N2CCOCC2)OC1=O` (stereo not given) came in with a logP of 2.11.
